{"source": "patent US7169813B2", "about": "“4-oxo-fenretinide, administered alone and in combination with fenretinide, as preventive and therapeutic agent for cancer” (Fondazione IRCCS “Istituto Nazionale Dei Tumori”, priority 2004, dated 2007)", "key": {"A2780/HPR": {"system": "A2780/HPR", "conditions": "A2780/HPR clone versus A2780; cited from earlier work"}, "A2780 [1]": {"system": "A2780", "test": "Apoptosis induction (Cell Death Detection ELISA, DNA fragmentation)", "type": "cell-based, human", "conditions": "5 μM, 24 hr", "experimental": "Although the mechanism of action of 4-HPR is not well understood, its tumor growth inhibitory effects have been attributed to apoptosis induction (Supino et al., Int. J. Cancer, 1996, 65:491–497). The apoptosis inducing effects of 4-oxo-4-HPR were compared with those of 4-HPR in the human ovarian carcinoma cell line A2780 and in its counterpart A2780/HPR, with induced resistance to 4-HPR. Apoptosis was evaluated by a Cell Death Detection ELISA Plus Assay Kit (Roche Diagnostic GmbH, Germany) according to the manufacturer's instructions. This assay quantitates the amount of cytoplasmic histone-associated DNA fragments which increases during apoptosis. Cells were seeded in 96-well cell culture plates and treated the day after with 5 μM 4-oxo-4-HPR or 4-HPR for 24 hr."}, "ovarian tumor cell lines": {"system": "ovarian tumor cell lines", "test": "Growth inhibition, ovarian tumor cell lines (FIG. 2)", "type": "cell-based, human", "conditions": "all tested ovarian tumor cell lines; 72 hr", "experimental": "The following human ovarian carcinoma cell lines were tested: A2780 was obtained from Dr. R. F. Ozols (National Cancer Institute, Bethesda, Md., USA); IGROV-1 was obtained from Dr. J. Benard (Villejuif, France); OVCA432 was obtained from Dr. R. C. Knapp (Boston, Mass., USA); OAW42 and SKOV-3 were purchased from ATCC (Rockville, Md., USA). A2780/HPR, a 4-HPR— resistant ovarian carcinoma cell line, was obtained in our laboratory by continuous exposure of A2780 cells to increasing concentrations of 4-EPR as previously described (Appierto et al., Br. J. Cancer, 2001, 84:1528–1534; Prinetti et al., J. Biol. Chem., 2003, 278:5574–5583). Briefly, cells surviving 60 transplants in 4-HPR —containing medium (3 transplants at 1 μM, 11 transplants at 2 μM, 8 transplants at 3 μM, and 38 transplants at 5 μM) were cloned by limiting dilution. […] Therefore, A2780/HPR cells were continuously maintained in 5 μM 4-HPR and seeded without 4-HPR in all the experiments performed to test their sensitivity to 4-oxo-4-HPR. […]\nFor the growth inhibition assays, cells were seeded at a density of 3500 cells per well in 96 cluster tissue culture plates, and treated 24 hr after seeding with different concentrations of 4-oxo-4-HPR or 4-HPR. […] The survival of treated cells was calculated for the various drug concentrations as percentage of the survival of control cells. […]"}, "A2780 [2]": {"system": "A2780", "test": "Growth inhibition (sulforhodamine B assay), single agents and combination", "type": "cell-based, human", "conditions": "Homo sapiens, A2780, 72 h, read-out: 50% Inhibitory Concentrations (IC50) at 72 h", "experimental": "The following human ovarian carcinoma cell lines were tested: A2780 was obtained from Dr. R. F. Ozols (National Cancer Institute, Bethesda, Md., USA); IGROV-1 was obtained from Dr. J. Benard (Villejuif, France); OVCA432 was obtained from Dr. R. C. Knapp (Boston, Mass., USA); OAW42 and SKOV-3 were purchased from ATCC (Rockville, Md., USA). A2780/HPR, a 4-HPR— resistant ovarian carcinoma cell line, was obtained in our laboratory by continuous exposure of A2780 cells to increasing concentrations of 4-EPR as previously described (Appierto et al., Br. J. Cancer, 2001, 84:1528–1534; Prinetti et al., J. Biol. Chem., 2003, 278:5574–5583). Briefly, cells surviving 60 transplants in 4-HPR —containing medium (3 transplants at 1 μM, 11 transplants at 2 μM, 8 transplants at 3 μM, and 38 transplants at 5 μM) were cloned by limiting dilution. […] Therefore, A2780/HPR cells were continuously maintained in 5 μM 4-HPR and seeded without 4-HPR in all the experiments performed to test their sensitivity to 4-oxo-4-HPR.\nThe following human breast tumor cell lines, obtained from Dr. R. Sutherland (Garvan Institute, Sydney, Australia) were tested: T-47D, BT-20 and MCF-7. The following human neuroblastoma cell lines, purchased from ATCC, were tested: SK-N-BE, SK-N-SH, SK-N-MC, and GI-LI-N. All cell lines were grown in monolayer, in medium containing 10% fetal bovine serum (Invitrogen) in 5% CO2 at 37° C. The medium for A2780, A2780/HPR, IGROV-1, OVCA432, SKOV-3, T-47D, BT-20, MCF-7, GI-LI-N and SK-N-BE cells was RPMI 1640 (Cambrex, Verviers, Belgium) and the medium for OAW42, SK-N-MC and SK-N-SH cells was EMEM (ATCC).\nFor the growth inhibition assays, cells were seeded at a density of 3500 cells per well in 96 cluster tissue culture plates, and treated 24 hr after seeding with different concentrations of 4-oxo-4-HPR or 4-HPR. 4-oxo-4-HPR was dissolved in absolute ethanol and 4-HPR (obtained from Dr. J. A. Crowell —NCI Bethesda, Md., USA) was dissolved in Me2SO. […] Control cultures received the same amount of ethanol or Me2SO as the treated cultures. 72 hr after treatment cell number was estimated by using the sulforhodamine B assay according to Monks et al., (J. Natl. Cancer, 1991, 11: 757–766). The survival of treated cells was calculated for the various drug concentrations as percentage of the survival of control cells. The antiproliferative activity of 4-oxo-4-HPR and 4-HPR in each cell line, was tested in three separate experiments and the average values ±SD are reported in FIGS. 2, 3, and 4.\nThe antiproliferative effect of the combination of the two drugs, administered at one single dose, was also tested in other ovarian carcinoma cell lines and in breast tumor cell lines. The type of interaction between 4-HPR and 4-oxo-4-HPR was assessed by the method of Drevinko et al., as described in Cancer Biochem. Biophys., 1976, 1:187–195. For this evaluation the drugs were assumed to provide independent effects. The combination index (CI) was calculated as follows: survival fraction (SF) of the combination of 4-HPR+4-oxo-4-HPR divided by (SF 4-HPR×SF 4-oxo-4-HPR). The results for CI are defined as follows: CI=1 indicates an additive effect, CI<1 indicates a supra-additive effect and CI>1 indicates a sub-additive effect."}}}
{"smiles": "CC1=C(/C=C/C(C)=C/C=C/C(C)=C/C(=O)Nc2ccc(O)cc2)C(C)(C)CCC1", "note": "[4-HPR, N-(4-hydroxyphenyl)retinamide, reference compound]", "values": [{"measurement": "resistance of A2780/HPR to 4-HPR", "setting": "A2780/HPR", "value": 10, "unit": "fold"}]}
{"smiles": "CC1=C(/C=C/C(C)=C/C=C/C(C)=C/C(=O)Nc2ccc(O)cc2)C(C)(C)CCC1=O", "note": "[4-oxo-4-HPR, 4-oxo-N-(4-hydroxyphenyl)retinamide]", "values": [{"measurement": "induction of apoptosis (DNA fragmentation, fold versus control cells)", "setting": "A2780 [1]", "value": "higher than that of 4-HPR"}, {"measurement": "reducing tumor cell survival (FIG. 2), compared with 4-HPR, in words", "setting": "ovarian tumor cell lines", "value": "more effective than 4-HPR"}, {"measurement": "IC50", "setting": "A2780 [2]", "value": 500, "unit": "nM"}]}
